Data on three molecules can be found in paper PMC4949396, “The effects of apremilast on the QTc interval in healthy male volunteers: a formal, thorough QT study” (International Journal of Clinical Pharmacology and …, 2016).

Read-outs that look alike come from different tables or passages of the source. Marks after values point to notes of the source that are not given here. A value given as a limit tells only on which side of the number the result lay.

On the set-up of series [1]: method as in PMID 26097790. To be noted: 30 mg b.i.d., cited from earlier work.
For series [2], the system named is healthy male subjects. Kind of series: safety assessments (adverse events, vital signs, laboratory tests). The series is classed as in vivo, human. Particulars: up to doses of 50 mg twice daily. The procedure:
Safety assessments were performed at clinic check-in, periodically throughout each treatment period, and at the end-of-study visit and included the measurement of vital signs, recording of standard 12-lead ECGs, collection of samples for clinical laboratory tests, and physical examinations. Adverse events (AEs) and concomitant medication use were assessed and recorded throughout the study.

A short description of series [3]: plasma pharmacokinetics on day 5 after multiple oral doses of apremilast in healthy male subjects. It counts as in vivo, human. Particulars: for AUC / AUC0–τ, geometric mean (geometric CV%): τ 12 hours; for AUC: read-out: AUC0–τ, geometric mean (geometric CV%); for Tmax: read-out: tmax, median (minimum–maximum). As for the experimental part: PK parameters were derived using noncompartmental methods with WinNonlin® Professional version 5.1.2 (Pharsight Corporation, Mountain View, CA, USA). […] For determination of PK parameters (terminal elimination rate constant (Kel), time to maximum plasma concentration (tmax), and terminal half-life (t1/2)), plasma concentrations for apremilast and its major metabolites below the limit of quantitation (BLQ) were treated as missing except for the calculation of area under the plasma concentration-time curve (AUC). To calculate AUC, BLQ or missing concentrations in the beginning and end of profile were replaced with zero, and BLQ or missing concentrations in the middle of the profile were interpolated.
Blood samples were collected in lithium heparin tubes and plasma was separated. The plasma samples, fortified with Sorensen’s buffer (25 mM citrate, pH 1.5) containing amastatin 20 µM (1 : 1/v : v), were analyzed by two validated liquid chromatography/tandem mass spectrometry methods, one for determination of apremilast and the other for its metabolites M12 (CC-16166), M14 (CC-16793), and M16 (CC-16557).

The target of another series is T1, hERG potassium channel (Homo sapiens, UniProt Q12809).
T1 construct: expressed in transfected cells; host or cells: HEK-293 cells stably expressing hERG
Kind of series: voltage-clamp study of hERG current in HEK293 cells expressing hERG. It counts as cell-based. The text has this:
This IC50 value is > 2 orders of magnitude greater than the maximum plasma concentration (Cmax) values observed in healthy male subjects and in PsA or rheumatoid patients at the highest doses studied. Prolongation of the QT interval is associated with a rare but dangerous ventricular arrhythmia, torsade de pointes, and drug-induced prolongation of the QT interval represents a significant risk. The current study was undertaken to provide definitive evaluation of the clinical potential for prolongation of the QT interval with apremilast.
Furthermore, a structure-activity relationship study has shown that the structure of a PDE4 inhibitor can be optimized for high-potency PDE4 inhibition and minimize or eliminate its affinity for hERG channel by targeted modification of pharmacophores. The structure of apremilast was optimized for PDE4 inhibition and minimal affinity for the hERG channel.

The subject of series [4] is healthy male subjects. The experiment in a line: thorough QT/QTc study, 24-hour digital Holter ECG (QTc, HR, PR). Particulars: for decrease of time-matched, baseline-adjusted LS mean PR interval (ΔΔPR): 2 hours postdose; for effect on the QT/QTc interval: overall conclusion of the study.
Method: This was a single-center, randomized, crossover study with 4 treatments, 4 periods, and 4 sequences conducted in healthy male subjects. Apremilast (Otezla; Celgene Corporation, Summit, NJ, USA) was administered in a double-blind manner with matching placebo, and moxifloxacin was administered in an open-label manner. The core central electrocardiogram (ECG) laboratory staff, including those reading the ECGs, was blinded to treatment, sequence time, and subject identifiers.
The 4 treatments evaluated in this study included an apremilast-matched placebo administered twice daily (b.i.d.) for 9 doses (~ 5 days), a clinically relevant dose of apremilast 30 mg administered b.i.d. for 9 doses, a supratherapeutic dose of apremilast 50 mg administered b.i.d. for 9 doses, and placebo administered on days 1 – 4 followed by a single dose of moxifloxacin 400 mg on day 5. Subjects fasted for at least 8 hours before the morning dose or before the start of Holter monitoring on days –1 and 5.
ECGs were analyzed for ventricular HR, PR, QRS, RR, and QT intervals and morphological changes. Mean of the triplicate ECGs at each nominal time point was used for all reporting and analysis; however, individual values were used to calculate the correction coefficient (γ) for QTcI. The QTc corrections were individual correction by QTcI = QT/RR^γ, Fridericia’s by QTcF = QT/RR^0.33, and Bazett’s by QTcB = QT/RR^0.5. Individual correction coefficient, γ, was estimated using linear regression of log QT on log RR for each subject using all baseline ECG assessments collected before day 1 dosing in period 1 within a subject. Change from baseline was calculated as the average of the three predose assessments on day 1 of the corresponding treatment period subtracted from the value (i.e., QTc) on day 5 at a given time t. Double-delta (ΔΔ) values for various cardiac parameters (i.e., ΔΔQTcI, ΔΔQTcB, etc.) were determined as the change from baseline value relative to placebo at the same scheduled time.
At each time point, difference in least-squares (LS) means was estimated between the LS means of each apremilast dose and placebo (with placebo as reference). Two-sided 90% confidence intervals (CIs) were produced for the comparisons.
The effect of QTcI for moxifloxacin was assessed at 1, 1.5, 2, 3, and 4 hours postdose to assess assay sensitivity. At each time point, the ΔΔ value was estimated between the LS means of moxifloxacin and placebo. […] If at least one of the CIs completely exceeded 5 ms, then the assay was declared sensitive.
For secondary analyses, a Student’s t-test was performed comparing each dose of apremilast vs. placebo and between moxifloxacin and placebo at each time point. Two-sided 90% CIs were produced for the comparisons. The effect of apremilast on QTcF, QTcB, HR, PR, and QT was assessed using the same linear mixed model from the primary analysis. […] The model included treatment group, period, sequence, and baseline ECG interval as a covariate, and subject nested within sequence as a random effect.
If a subject experienced > 1 episode of a particular outlier event, the subject was counted only once for that event.
Series [5] has as its system healthy male subjects. The experiment in a line: exploratory PK/PD relationship between ΔΔQTcI and plasma concentration (linear mixed-effect model). Particulars: for relationship between changes in QT/QTc interval and plasma concentration: in vivo; for estimated slope (SE) of ΔΔQTcI vs plasma concentration: linear regression, random effect model, pooled doses. The series is classed as in vivo, human. The procedure:
The PK/PD analysis was performed using a linear mixed-effect model to explore the relationship between the ΔΔQTcI and plasma concentrations for apremilast, M12, M14, and M16, and to estimate the population slope (β) and standard error of slope (SEβ). The expected maximum ΔΔQTcI effect for each dose and each analyte was estimated using the slope and average Cmax with one-sided upper limit 95% CIs.

On the set-up of series [6]: method as in PMID 21859393. Particulars: cited from earlier work.
Where [7] appears, read: patients with rheumatoid arthritis or PsA, n = 15.
[8] abbreviates: apremilast 50 mg b.i.d., day 5, plasma.
[9] abbreviates: male, human, oral, apremilast 30 mg b.i.d., day 5, plasma.
The mark [10] stands for this setting: male, human, oral, apremilast 50 mg b.i.d., day 5, plasma.
[11] abbreviates: both apremilast doses, all time points.
Where [12] appears, read: both apremilast doses, all values.
Where [13] appears, read: apremilast 30 mg b.i.d., day 5, plasma.

Broadly, the Tmax is the time from dosing to the highest level. As usually defined, the Cmax is the peak of the concentration-time curve.

T1 sequence (Q12809 whole entry): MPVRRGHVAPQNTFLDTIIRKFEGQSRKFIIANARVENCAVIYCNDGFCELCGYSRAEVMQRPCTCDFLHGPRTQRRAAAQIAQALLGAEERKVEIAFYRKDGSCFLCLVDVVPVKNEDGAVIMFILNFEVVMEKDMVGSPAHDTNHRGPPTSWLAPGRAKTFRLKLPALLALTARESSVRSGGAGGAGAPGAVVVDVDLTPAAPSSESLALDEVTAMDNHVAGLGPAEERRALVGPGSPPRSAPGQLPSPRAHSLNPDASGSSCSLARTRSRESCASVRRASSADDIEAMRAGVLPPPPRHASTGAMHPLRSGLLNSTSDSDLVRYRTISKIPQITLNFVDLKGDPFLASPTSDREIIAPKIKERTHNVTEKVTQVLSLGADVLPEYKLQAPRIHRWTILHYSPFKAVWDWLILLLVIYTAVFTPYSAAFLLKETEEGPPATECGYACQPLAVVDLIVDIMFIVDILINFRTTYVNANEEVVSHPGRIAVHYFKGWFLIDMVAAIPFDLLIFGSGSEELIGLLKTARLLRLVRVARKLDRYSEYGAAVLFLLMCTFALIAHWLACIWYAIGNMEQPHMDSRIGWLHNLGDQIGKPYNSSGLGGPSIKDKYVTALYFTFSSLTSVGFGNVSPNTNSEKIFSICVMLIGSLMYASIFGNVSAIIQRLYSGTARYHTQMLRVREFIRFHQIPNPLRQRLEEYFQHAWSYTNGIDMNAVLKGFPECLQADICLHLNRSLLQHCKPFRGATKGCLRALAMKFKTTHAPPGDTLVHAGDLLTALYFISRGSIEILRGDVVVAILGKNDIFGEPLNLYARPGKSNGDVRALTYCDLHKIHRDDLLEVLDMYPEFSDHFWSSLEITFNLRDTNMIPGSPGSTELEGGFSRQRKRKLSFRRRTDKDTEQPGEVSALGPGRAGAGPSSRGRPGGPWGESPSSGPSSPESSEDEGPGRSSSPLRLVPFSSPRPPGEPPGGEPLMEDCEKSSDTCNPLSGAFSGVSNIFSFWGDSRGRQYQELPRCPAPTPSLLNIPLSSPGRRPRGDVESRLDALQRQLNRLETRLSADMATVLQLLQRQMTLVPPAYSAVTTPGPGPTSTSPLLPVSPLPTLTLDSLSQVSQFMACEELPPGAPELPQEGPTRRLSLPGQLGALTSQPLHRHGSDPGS

Turning to `CCOc1cc([C@@H](CS(C)(=O)=O)N2C(=O)c3cccc(NC(C)=O)c3C2=O)ccc1OC` [apremilast, (S)-N-[2-[1-(3-ethoxy-4-methoxyphenyl)-2-methanesulfonylethyl]-1,3-dioxo-2,3-dihydro-1H-isoindol-4-yl] acetamide], the “maximum AUC0–12” value in series [1] (PsA and psoriasis patients) is 8,280 ng×h/mL. Also, the “maximum Cmax” value in series [1] (PsA and psoriasis patients) is 981 ng/mL. Further, in series [1] (setting [7]), the “geometric mean Cmax” value is listed as 554 ng/mL. Besides, the “mean AUC0–12” value in series [1] (setting [7]) is reported as 3,670 ng×h/mL. In addition, in the series with healthy male subjects [2], the safety and tolerability result was “safe and well tolerated”. Besides, the “increase of AUC with increasing dose” value in series [3] (50 mg b.i.d. vs 30 mg b.i.d.) was ~ 1.5 times. In series [3] (50 mg b.i.d. vs 30 mg b.i.d.), the “increase of Cmax with increasing dose” value is on record as ~ 1.4 times. For the same molecule, the “t1/2, geometric mean (geometric CV%)” value in series [3] (setting [8]) is listed as 7.28 (29.1) h. Besides, the figures for the AUC in series [3] (setting [9]) and in series [3] (setting [10]) were 2260 ng·h/mL and 3450 ng·h/mL, respectively. For the same molecule, the half-life was 6.41 h in series [3] (male, human, oral, apremilast 30 mg b.i.d., day 5, plasma, read-out: t1/2, geometric mean (geometric CV%) (converted)); 6 to 7 h in series [3] (male, human, plasma, oral, across both doses (30 and 50 mg b.i.d.), read-out: mean t1/2); 6 to 9 h in series [6] (humans). In addition, the time to peak (Tmax) in series [3] (setting [9]) and in series [3] (setting [10]) was 2 h each time. Also, the Cmax in series [3] (male, human, plasma, oral, 30 mg, apremilast 30 mg b.i.d., day 5, plasma, read-out: Cmax, geometric mean (geometric CV%)) was 352 ng/mL; in series [3] (male, human, plasma, oral, 50 mg, apremilast 50 mg b.i.d., day 5, plasma, read-out: Cmax, geometric mean (geometric CV%)), 507 ng/mL; in series [3] (male, human, plasma, oral, 50 mg, healthy subjects, 50 mg b.i.d., read-out: maximum Cmax) it was 1060 ng/mL. The AUC(0-t) in series [3] (male, human, plasma, oral, healthy subjects, 50 mg b.i.d., read-out: maximum AUC0–12) amounted to 9350 ng·h/mL. For the same molecule, the “Hill coefficient of hERG current inhibition” value at hERG potassium channel (HEK293 cells expressing hERG) is 0.9. Further, the IC50 is 184 µM on hERG potassium channel (HEK293 cells expressing hERG, read-out: hERG current inhibition, estimated half maximal inhibitory concentration (IC50)) and 184 µM at hERG potassium channel (HEK293 cells expressing hERG, same value in mass units, read-out: hERG current inhibition, estimated IC50 (converted)). Also, on hERG potassium channel (voltage-clamp, HEK-293 cells stably expressing hERG), the “affinity for the hERG channel” value is given as “low affinity”. In addition, on hERG potassium channel (vs Cmax in healthy male subjects and PsA or rheumatoid patients), the “hERG IC50 relative to Cmax at the highest doses studied” value is given as > 2 orders of magnitude. Moreover, the “LS mean ΔΔQTcI” value in the series on healthy male subjects [4] (apremilast 30 mg b.i.d., day 5, all time points) is recorded as “–4.2 to 0.7 ms”; in the series with healthy male subjects [4] (both apremilast doses (30 and 50 mg b.i.d.), all time points), less than 1 ms. The “increase of time-matched, baseline-adjusted LS mean HR (ΔΔHR)” value in the series on healthy male subjects [4] (apremilast 30 mg dose, 2 hours after administration) was 3.1 bpm; with healthy male subjects [4] (apremilast 50 mg dose, 3 hours after administration), 4.4 bpm. The “decrease of time-matched, baseline-adjusted LS mean PR interval (ΔΔPR)” value with healthy male subjects [4] (apremilast 30 mg dose) turned out to be 2.8 ms; in the series on healthy male subjects [4] (apremilast 50 mg dose), 3.5 ms. Besides, the “upper limit of two-sided 90% CI of ΔΔQTcB” value with healthy male subjects [4] (setting [11]) is on record as “below 10 ms”. Besides, the “upper limit of two-sided 90% CI of ΔΔQTcF” value with healthy male subjects [4] (setting [11]) is on record as “below 10 ms”. The “LS mean ΔΔQTcB” value in the series with healthy male subjects [4] (setting [12]) is reported as less than 5 ms. For the same molecule, the “LS mean ΔΔQTcF” value with healthy male subjects [4] (setting [12]) is reported as less than 1 ms. For the same molecule, in the series with healthy male subjects [4] (categorical analysis, while receiving apremilast), the “subjects with maximum on-treatment QT/QTc interval > 480 ms or change from baseline > 60 ms” value is “No subject”. The “effect on the QT/QTc interval” value in the series with healthy male subjects [4] is given as “did not prolong the QT interval”. In addition, the “relationship between changes in QT/QTc interval and plasma concentration” value in the series with healthy male subjects [5] is recorded as “No trend or relationship”. For the same molecule, the “estimated slope (SE) of ΔΔQTcI vs plasma concentration” value with healthy male subjects [5] was “–0.0016 (0.0027)”.

On to `COc1c(N2C[C@@H]3CCCN[C@@H]3C2)c(F)cc2c(=O)c(C(=O)O)cn(C3CC3)c12` [moxifloxacin], for which the “effect on the QT/QTc interval” value in the series on healthy male subjects [4] is recorded as “significantly increased the QT/QTc interval”.

For the molecule “O-des-methyl-[S]-CC-10004-glucuronide [M12]”, in series [3] (setting [13]), the “t1/2, geometric mean (geometric CV%)” value was 12.18 (25.9)^c h; the “tmax, median (minimum–maximum)” value was 3.0 (1.0 – 12.0) h; the “AUC0–τ, geometric mean (geometric CV%)” value is 3,930 (23.9) ng×h/mL. For the same molecule, in series [3] (setting [8]), the “Cmax, geometric mean (geometric CV%)” value was 659.1 (21.0) ng/mL; the “t1/2, geometric mean (geometric CV%)” value is reported as 12.79 (29.0)^e h; the “tmax, median (minimum–maximum)” value was 3.0 (0.5 – 6.0) h; the “AUC0–τ, geometric mean (geometric CV%)” value is 5,968 (20.0) ng×h/mL. Moreover, in series [3] (plasma, day 5), the “AUC of metabolite relative to apremilast” value is ~ 1.7 fold and the “Cmax of metabolite relative to apremilast” value was ~ 1.25 fold. In the series with healthy male subjects [5], the “relationship between changes in QT/QTc interval and plasma concentration” value is reported as “No trend or relationship”; the “estimated slope (SE) of ΔΔQTcI vs plasma concentration” value was “–0.0006 (0.0028)”. For the same molecule, in series [6] (glucuronide metabolites), the pharmacological activity entry is listed as “not pharmacologically active”. Also, in series [6] (humans), the half-life is listed as ~ 16 hours and the “metabolite to total radioactivity ratio” value is reported as ~ 39%.
